# PubChem BioAssay (NCI)
#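 Results reflect a 48-hour exposure of cells in 96-well plates to compound at five concentrations. At the TGI there is no net growth.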
# Tests used:
# Assay in all cases: NCI tumour cell line growth inhibition, 48 h
# [1] = test system: 786-0 renal
# [2] = test system: EKVX NSCLC
# [3] = test system: HT29 colon
# [4] = test system: NCI-H23 lung
# [5] = test system: NCI/ADR-RES ovarian
# [6] = test system: OVCAR-4 ovarian
# [7] = test system: PC-3 prostate
# [8] = test system: SF-268 CNS
# [9] = test system: SF-295 CNS
# [10] = test system: SN12C renal
Compound,TGI [1],TGI [2],TGI [3],TGI [4],TGI [5],TGI [6],TGI [7],TGI [8],TGI [9],TGI [10]
OC(c1cc(C(O)(C(F)(F)F)C(F)(F)F)ncn1)(C(F)(F)F)C(F)(F)F,> 10 µM,> 10 µM,> 10 µM,> 10 µM,> 10 µM,> 10 µM,> 10 µM,> 10 µM,> 10 µM,> 10 µM
COCCc1c(C)c(C#N)c2n(C)c3ccccc3n2c1=O,> 10 µM,> 10 µM,> 10 µM,> 10 µM,> 10 µM,> 10 µM,> 10 µM,> 10 µM,> 10 µM,> 10 µM
NS(=O)(=O)c1ccc(NNC(=O)c2cccc3c(=O)c4ccccc4[nH]c23)cc1,> 100 µM,> 100 µM,> 100 µM,> 100 µM,> 100 µM,> 100 µM,> 100 µM,> 100 µM,> 100 µM,> 100 µM
COC(=O)N1CC[C@@H]2CCC=C(c3cccc4c3OCO4)[C@@H]21,> 100 µM,> 100 µM,> 100 µM,> 100 µM,> 100 µM,> 100 µM,> 100 µM,> 100 µM,> 100 µM,> 100 µM
CCCCc1ccc(Nc2nc3c(ncn3C3OC(COC(C)=O)C(OC(C)=O)C3OC(C)=O)c(=O)[nH]2)cc1 (stereo not given),32 µM,> 100 µM,37.5 µM,32.5 µM,> 100 µM,52.9 µM,48.1 µM,37.7 µM,53.1 µM,42.3 µM
CC(C)(C)OC(=O)N1C(C2=COc3ccccc3O2)=COc2ccccc21,> 100 µM,52.3 µM,> 100 µM,95.1 µM,82.3 µM,> 100 µM,> 100 µM,64.4 µM,83.5 µM,> 100 µM
O=C1C(NS(=O)(=O)c2ccccc2)=C(n2cnc3ccccc32)C(=O)c2ccccc21,> 100 µM,> 100 µM,> 100 µM,> 100 µM,> 100 µM,> 100 µM,> 100 µM,> 100 µM,> 100 µM,> 100 µM
Nn1c(CNc2ccc(-c3nnc(Nc4ccc(Cl)cc4)n3N)cc2)nnc1Nc1ccc(Cl)cc1,> 100 µM,> 100 µM,> 100 µM,> 100 µM,> 100 µM,> 100 µM,> 100 µM,> 100 µM,> 100 µM,> 100 µM
Oc1c(C(O)(c2ccccc2)c2ccc3ccccc3c2O)ccc2ccccc12,> 69 µM,50.7 µM,33 µM,23.1 µM,43.1 µM,> 47.8 µM,20.7 µM,28.4 µM,47.9 µM,23.1 µM
Clc1cc2nc(C3CCCO3)[nH]c2cc1Cl (stereo not given),> 100 µM,> 100 µM,> 100 µM,> 100 µM,> 100 µM,> 100 µM,> 100 µM,> 100 µM,> 100 µM,> 100 µM
COC(=O)C12CCC(C(=O)OC)(Cc3c(c4ccccc4n3S(=O)(=O)c3ccccc3)C1)C2=O (stereo not given),> 69.6 µM,> 100 µM,> 81 µM,> 100 µM,> 100 µM,> 100 µM,> 100 µM,> 100 µM,> 100 µM,> 100 µM
CCCCCCc1nn2c(-c3ccc(C)cc3)nnc2s1,> 100 µM,> 100 µM,> 100 µM,> 100 µM,> 100 µM,> 100 µM,> 100 µM,> 100 µM,> 100 µM,> 100 µM
CCOC(=O)C(SCCO)C(C(=O)OCC)n1ccc(N)nc1=O (stereo not given),> 100 µM,> 100 µM,> 100 µM,> 100 µM,> 100 µM,> 100 µM,> 100 µM,> 100 µM,> 100 µM,> 100 µM
c1ccc(Cc2cccc3cc(-c4ccc(-c5ccccc5)cc4)[nH]c23)cc1,> 100 µM,> 100 µM,> 100 µM,> 100 µM,> 100 µM,> 100 µM,> 100 µM,> 100 µM,> 100 µM,> 100 µM
CCCCC1Cc2cc(O)ccc2-c2n1c1cc(O)ccc1[n+]2C (stereo not given) (tested in a mixture with another compound),> 100 µM,> 100 µM,> 100 µM,> 76.2 µM,> 100 µM,97.6 µM,> 100 µM,> 59.5 µM,> 60.1 µM,> 100 µM
COc1cc(N=C(N)N=C(N)N)c2ncccc2c1,> 100 µM,> 100 µM,> 100 µM,> 100 µM,> 100 µM,> 100 µM,> 100 µM,> 100 µM,> 100 µM,> 100 µM
CC(C)OP(=O)(OC(C)C)C(C(F)(F)F)C(F)(F)F,> 100 µM,> 100 µM,> 100 µM,> 100 µM,> 100 µM,> 100 µM,> 100 µM,> 100 µM,> 100 µM,> 100 µM
CCCCCCCCCc1cc(O)c(O)cc1CCCCCCCCC,> 10 µM,> 10 µM,> 10 µM,> 10 µM,> 10 µM,> 10 µM,> 10 µM,> 10 µM,> 10 µM,> 10 µM
COc1cc(Cn2c3c(c4c(CN(C)C)c(O)ccc42)C(=O)c2ccccc2C3=O)cc(OC)c1,27.6 µM,40.4 µM,> 100 µM,29.1 µM,34.8 µM,26.9 µM,35.4 µM,27.9 µM,44 µM,55.1 µM
Cn1c(-c2ccccc2)cc(-c2ccc3c(c2)OCO3)c1-c1cccs1,> 100 µM,> 100 µM,> 100 µM,> 100 µM,> 100 µM,> 100 µM,> 100 µM,> 100 µM,> 100 µM,> 100 µM
O=C(Nc1ccc(Cl)cc1)c1cc(S(=O)(=O)Nc2n[nH]c(=O)[nH]2)c(SSc2cc(Cl)c(C(=O)Nc3ccc(Cl)cc3)cc2S(=O)(=O)Nc2n[nH]c(=O)[nH]2)cc1Cl,> 100 µM,> 100 µM,> 100 µM,> 100 µM,> 100 µM,> 100 µM,> 100 µM,> 100 µM,> 100 µM,> 100 µM
C/C(Cl)=N\OC(=O)Nc1ccc([N+](=O)[O-])cc1,18.4 µM,35.2 µM,38.7 µM,49.9 µM,29.3 µM,28.2 µM,29.9 µM,41.8 µM,31.8 µM,35.1 µM
CC1=CC(c2ccccc2)OP1(=O)c1ccccc1 (stereo not given),> 100 µM,> 100 µM,> 100 µM,> 100 µM,> 100 µM,> 100 µM,> 100 µM,> 100 µM,> 100 µM,> 100 µM
C/C(CC(O)(C(F)(F)F)C(F)(F)F)=N\N,> 10 µM,> 10 µM,> 10 µM,> 10 µM,> 10 µM,> 10 µM,> 10 µM,> 10 µM,> 10 µM,> 10 µM
Cc1cccc2c1Oc1cc(Cl)ccc1C2NC(=O)CCN1CCCCC1 (stereo not given),28 µM,55.5 µM,27.1 µM,37.5 µM,32 µM,30.9 µM,30.5 µM,83.2 µM,33.1 µM,33 µM
